Molecular target: T1, Pdp (pyrimidine-nucleoside phosphorylase) (Mycoplasmoides genitalium, UniProt P47297)
T1 sequence (P47297 1-421): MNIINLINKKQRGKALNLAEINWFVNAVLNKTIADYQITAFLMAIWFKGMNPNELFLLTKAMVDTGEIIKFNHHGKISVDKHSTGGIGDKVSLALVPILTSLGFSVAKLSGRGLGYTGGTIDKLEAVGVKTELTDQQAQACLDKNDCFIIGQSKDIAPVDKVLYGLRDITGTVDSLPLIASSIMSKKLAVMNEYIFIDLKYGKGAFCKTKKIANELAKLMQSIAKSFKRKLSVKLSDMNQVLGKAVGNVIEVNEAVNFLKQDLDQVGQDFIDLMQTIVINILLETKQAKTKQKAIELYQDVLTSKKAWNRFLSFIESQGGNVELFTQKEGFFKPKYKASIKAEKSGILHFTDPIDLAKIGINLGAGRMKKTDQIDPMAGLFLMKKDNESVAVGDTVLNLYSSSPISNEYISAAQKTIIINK
Experiment: uracil production at […] nm after NaOH stop
Assay type: biochemical
Details: 1.25-12.5 mM deoxyuridine; 10 mM phosphate; 10 mM Tris pH 7.3; 1 mM EDTA; 37 C

uracil production at 290 nm after NaOH stop: We determined uracil production by A290.
SMILES: O=c1cc[nH]c(=O)[nH]1 [uracil]

From paper PMC3856890 (Nature methods, 2013)
